Data: US20260262643A1, “HERBICIDAL BENZOXAZINES” (FMC CORPORATION, priority 2022, published 2026)

How the values were obtained:
barnyardgrass [1] = assay: Test C postemergence; format: in vivo, Echinochloa crusgalli; conditions: 10 days
Outline: (§1)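 Visual injury ratings on a 0–100 scale (100 = complete control) were made against untreated controls 10 days after treatment in the greenhouse. Compounds, formulated with surfactant in non-phytotoxic solvent, were sprayed on soil preemergence or onto one- to two-leaf plants 2–10 cm tall postemergence.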

soybean [2] = assay: Test C preemergence; format: in vivo, Glycine max; conditions: for Soybean plant response rating: preemergence; for Plant response rating, Soybean: Preemergence
Outline: as §1

soybean [3] = assay: Test C postemergence; format: in vivo, Glycine max; conditions: 10 days
Outline: as §1

corn [4] = assay: Test C preemergence; format: in vivo, Zea mays; conditions: for Corn plant response rating: preemergence; for Plant response rating, Corn: Preemergence
Outline: as §1

pigweed, palmer [5] = assay: Test C preemergence; format: in vivo, Amaranthus palmeri; conditions: for Pigweed, Palmer plant response rating: preemergence; for Plant response rating, Pigweed, Palmer: Preemergence
Outline: as §1

wheat [6] = assay: Test C postemergence; format: in vivo, Triticum aestivum; conditions: 10 days
Outline: as §1

ryegrass, Italian [7] = assay: Test C preemergence; format: in vivo, Lolium multiflorum; conditions: for Ryegrass, Italian plant response rating: preemergence; for Plant response rating, Ryegrass, Italian: Preemergence
Outline: as §1

green foxtail [8] = assay: Test C preemergence; format: in vivo, Setaria viridis; conditions: for Foxtail, Green plant response rating: preemergence; for Plant response rating, Foxtail, Green: Preemergence
Outline: as §1

ryegrass, Italian [9] = assay: Test C postemergence; format: in vivo, Lolium multiflorum; conditions: 10 days
Outline: as §1

oat, wild [10] = assay: Test C preemergence; format: in vivo, Avena fatua; conditions: for Oat, Wild plant response rating: preemergence; for Plant response rating, Oat, Wild: Preemergence
Outline: as §1

blackgrass [11] = assay: Test C postemergence; format: in vivo, Alopecurus myosuroides; conditions: 10 days
Outline: as §1

horseweed = assay: Test C postemergence; format: in vivo, Erigeron canadensis; conditions: 10 days
Outline: as §1

pigweed, palmer [12] = assay: Test C postemergence; format: in vivo, Amaranthus palmeri; conditions: 10 days
Outline: as §1

kochia [13] = assay: Test C postemergence; format: in vivo, Bassia scoparia; conditions: 10 days
Outline: as §1

ragweed [14] = assay: Test C preemergence; format: in vivo, Ambrosia artemisiifolia; conditions: for Ragweed plant response rating: preemergence; for Plant response rating, Ragweed: Preemergence
Outline: as §1

rice = assay: Test D flooded paddy test; format: in vivo, Oryza sativa; conditions: 250 g ai/ha, applied to paddy water, visual rating after 13 to 14 days, scale 0 to 100 (0 no effect, 100 complete control)
Outline: (§2)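 At the 2-leaf stage, floodwater 3 cm deep received the test compound; that depth persisted throughout. Plants scored visually 13 to 14 days on, 0 (no effect) to 100 (complete control), dash indicating no result.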

oat, wild [15] = assay: Test C postemergence; format: in vivo, Avena fatua; conditions: 10 days
Outline: as §1

barnyardgrass [16] = assay: Test D flooded paddy test; format: in vivo, Echinochloa crus-galli; conditions: 250 g ai/ha, applied to paddy water, visual rating after 13 to 14 days, scale 0 to 100 (0 no effect, 100 complete control)
Outline: as §2

green foxtail [17] = assay: Test C postemergence; format: in vivo, Setaria viridis; conditions: 10 days
Outline: as §1

sedge, umbrella = assay: Test D flooded paddy test; format: in vivo, Cyperus difformis; conditions: 250 g ai/ha, applied to paddy water, visual rating after 13 to 14 days, scale 0 to 100 (0 no effect, 100 complete control)
Outline: as §2

corn [18] = assay: Test C postemergence; format: in vivo, Zea mays; conditions: 10 days
Outline: as §1

kochia [19] = assay: Test C preemergence; format: in vivo, Bassia scoparia; conditions: for Kochia plant response rating: preemergence; for Plant response rating, Kochia: Preemergence
Outline: as §1

barnyardgrass [20] = assay: Test C preemergence; format: in vivo, Echinochloa crusgalli; conditions: for Barnyardgrass plant response rating: preemergence; for Plant response rating, Barnyardgrass: Preemergence
Outline: as §1

galium = assay: Test C postemergence; format: in vivo, Galium aparine; conditions: 10 days
Outline: as §1

blackgrass [21] = assay: Test C preemergence; format: in vivo, Alopecurus myosuroides; conditions: for Blackgrass plant response rating: preemergence; for Plant response rating, Blackgrass: Preemergence
Outline: as §1

ducksalad = assay: Test D flooded paddy test; format: in vivo, Heteranthera limosa; conditions: 250 g ai/ha, applied to paddy water, visual rating after 13 to 14 days, scale 0 to 100 (0 no effect, 100 complete control)
Outline: as §2

wheat [22] = assay: Test C preemergence; format: in vivo, Triticum aestivum; conditions: for Wheat plant response rating: preemergence; for Plant response rating, Wheat: Preemergence
Outline: as §1

ragweed [23] = assay: Test C postemergence; format: in vivo, Ambrosia artemisiifolia; conditions: 10 days
Outline: as §1

[24] = 500 g ai/ha, postemergence, 0 to 100 scale (0 no effect, 100 complete control)
[25] = Postemergence, 125 g ai/ha, 0 to 100 scale (0 no effect, 100 complete control)
[26] = 500 g ai/ha, 0 to 100 scale (0 no effect, 100 complete control)
[27] = 125 g ai/ha, 0 to 100 scale, 0 no effect, 100 complete control
[28] = 125 g ai/ha, postemergence, 0 to 100 scale, 0 no effect, 100 complete control
[29] = Postemergence, 500 g ai/ha, visual 0 to 100 scale (0 no effect, 100 complete control)
[30] = 500 g ai/ha, visual rating after 10 days, 0 to 100 scale (0 no effect, 100 complete control)
[31] = Test C, 125 g ai/ha, 0 to 100 scale (0 no effect, 100 complete control)

CCOC[C@H]1CN(C(=O)c2cc(-n3cnc(CC)n3)ccc2C)c2cccc(Cl)c2O1 [Compound 412]
40: Plant response rating, Barnyardgrass (barnyardgrass [1]; [25])
0: Plant response rating, Corn (corn [4]; [27]) | Oat, Wild plant response rating (oat, wild [10]; [26]) | Plant response rating, Oat, Wild (oat, wild [10]; [27])
20: Plant response rating, Wheat (wheat [6]; [25]) | Plant response rating, Horseweed (horseweed; [25]) | Plant response rating, Oat, Wild (oat, wild [15]; [25]) | Plant response rating, Corn (corn [18]; [24]) | Plant response rating, Corn (corn [18]; [25])
60: Plant response rating, Soybean (soybean [2]; [27]) | Plant response rating, Blackgrass (blackgrass [11]; [25]) | Plant response rating, Barnyardgrass (barnyardgrass [20]; [27])
75: Plant response rating, Ducksalad (Flood) (ducksalad)
80: Plant response rating, Barnyardgrass (barnyardgrass [1]; [24]) | Plant response rating, Ryegrass, Italian (ryegrass, Italian [7]; [27]) | Plant response rating, Pigweed, Palmer (pigweed, palmer [12]; [25]) | Plant response rating, Kochia (kochia [13]; [25]) | Plant response rating, Foxtail, Green (green foxtail [17]; [25]) | Kochia plant response rating (kochia [19]; [26]) | Barnyardgrass plant response rating (barnyardgrass [20]; [26])
25: Plant response rating, Barnyardgrass (Flood) (barnyardgrass [16])
100: Plant response rating, Soybean (soybean [3]; [25]) | Pigweed, Palmer plant response rating (pigweed, palmer [5]; [26]) | Plant response rating, Pigweed, Palmer (pigweed, palmer [5]; [27]) | Foxtail, Green plant response rating (green foxtail [8]; [26]) | Plant response rating, Foxtail, Green (green foxtail [8]; [27]) | Ragweed plant response rating (ragweed [14]; [26]) | Plant response rating, Galium (galium; [24]) | Plant response rating, Galium (galium; [25])
30: Corn plant response rating (corn [4]; [26]) | Plant response rating, Horseweed (horseweed; [24]) | Plant response rating, Kochia (kochia [19]; [27]) | Wheat plant response rating (wheat [22]; [26]) | Plant response rating, Wheat (wheat [22]; [27])
50: Plant response rating, Ragweed (ragweed [14]; [27]) | Plant response rating, Oat, Wild (oat, wild [15]; [24]) | Plant response rating, Blackgrass (blackgrass [21]; [27])
10: Plant response rating, Rice (Flood) (rice)
70: Plant response rating, Ryegrass, Italian (ryegrass, Italian [9]; [25])
90: Soybean plant response rating (soybean [2]; [26]) | Ryegrass, Italian plant response rating (ryegrass, Italian [7]; [26]) | Plant response rating, Blackgrass (blackgrass [11]; [24]) | Plant response rating, Pigweed, Palmer (pigweed, palmer [12]; [24]) | Plant response rating, Kochia (kochia [13]; [24]) | Plant response rating, Foxtail, Green (green foxtail [17]; [24]) | Plant response rating, Sedge, Umbrella (Flood) (sedge, umbrella) | Blackgrass plant response rating (blackgrass [21]; [26]) | Plant response rating, Ragweed (ragweed [23]; [25])

CCn1cnc(-c2cccc(C(=O)N3C[C@H](C)Oc4c(C)cccc43)c2)n1 [Compound 165]
0: Plant response rating, Barnyardgrass (barnyardgrass [1]; [28]) | Plant response rating, Soybean (soybean [2]; [30]) | Soybean plant response rating (soybean [2]; [31]) | Plant response rating, Corn (corn [4]; [30]) | Corn plant response rating (corn [4]; [31]) | Plant response rating, Pigweed, Palmer (pigweed, palmer [5]; [30]) | Pigweed, Palmer plant response rating (pigweed, palmer [5]; [31]) | Plant response rating, Wheat (wheat [6]; [28]) | Plant response rating, Wheat (wheat [6]; [29]) | Plant response rating, Ryegrass, Italian (ryegrass, Italian [7]; [30]) | Ryegrass, Italian plant response rating (ryegrass, Italian [7]; [31]) | Plant response rating, Foxtail, Green (green foxtail [8]; [30]) | Foxtail, Green plant response rating (green foxtail [8]; [31]) | Plant response rating, Ryegrass, Italian (ryegrass, Italian [9]; [28]) | Plant response rating, Ryegrass, Italian (ryegrass, Italian [9]; [29]) | Plant response rating, Oat, Wild (oat, wild [10]; [30]) | Oat, Wild plant response rating (oat, wild [10]; [31]) | Plant response rating, Blackgrass (blackgrass [11]; [28]) | Plant response rating, Horseweed (horseweed; [28]) | Plant response rating, Pigweed, Palmer (pigweed, palmer [12]; [28]) | Plant response rating, Kochia (kochia [13]; [28]) | Plant response rating, Kochia (kochia [13]; [29]) | Ragweed plant response rating (ragweed [14]; [31]) | Plant response rating, Rice (Flood) (rice) | Plant response rating, Oat, Wild (oat, wild [15]; [28]) | Plant response rating, Oat, Wild (oat, wild [15]; [29]) | Plant response rating, Barnyardgrass (Flood) (barnyardgrass [16]) | Plant response rating, Foxtail, Green (green foxtail [17]; [28]) | Plant response rating, Foxtail, Green (green foxtail [17]; [29]) | Plant response rating, Sedge, Umbrella (Flood) (sedge, umbrella) | Plant response rating, Corn (corn [18]; [28]) | Plant response rating, Corn (corn [18]; [29]) | Plant response rating, Kochia (kochia [19]; [30]) | Kochia plant response rating (kochia [19]; [31]) | Barnyardgrass plant response rating (barnyardgrass [20]; 125 g ai/ha, 0 to 100 scale (0 no effect, 100 complete control)) | Plant response rating, Barnyardgrass (barnyardgrass [20]; [30]) | Plant response rating, Galium (galium; [28]) | Plant response rating, Galium (galium; [29]) | Plant response rating, Blackgrass (blackgrass [21]; [30]) | Blackgrass plant response rating (blackgrass [21]; [31]) | Plant response rating, Ducksalad (Flood) (ducksalad) | Plant response rating, Wheat (wheat [22]; [30]) | Wheat plant response rating (wheat [22]; [31]) | Plant response rating, Ragweed (ragweed [23]; [28]) | Plant response rating, Ragweed (ragweed [23]; [29])
20: Plant response rating, Ragweed (ragweed [14]; [30])
60: Plant response rating, Horseweed (horseweed; [29])
30: Plant response rating, Soybean (soybean [3]; [28]) | Plant response rating, Soybean (soybean [3]; [29])
10: Plant response rating, Barnyardgrass (barnyardgrass [1]; [29]) | Plant response rating, Blackgrass (blackgrass [11]; [29]) | Plant response rating, Pigweed, Palmer (pigweed, palmer [12]; [29])

COc1ccc(-n2cncn2)cc1C(=O)N1C[C@H](C)Oc2c(F)cccc21 [Compound 270]
100: Plant response rating, Barnyardgrass (barnyardgrass [1]; [29]) | Soybean plant response rating (soybean [2]; [26]) | Plant response rating, Soybean (soybean [3]; [28]) | Pigweed, Palmer plant response rating (pigweed, palmer [5]; [26]) | Ryegrass, Italian plant response rating (ryegrass, Italian [7]; [26]) | Foxtail, Green plant response rating (green foxtail [8]; [26]) | Foxtail, Green plant response rating (green foxtail [8]; [31]) | Plant response rating, Barnyardgrass (barnyardgrass [20]; [30]) | Plant response rating, Galium (galium; [28]) | Plant response rating, Galium (galium; [29]) | Plant response rating, Ducksalad (Flood) (ducksalad)
95: Plant response rating, Sedge, Umbrella (Flood) (sedge, umbrella)
90: Plant response rating, Barnyardgrass (barnyardgrass [1]; [28]) | Soybean plant response rating (soybean [2]; [31]) | Pigweed, Palmer plant response rating (pigweed, palmer [5]; [31]) | Ryegrass, Italian plant response rating (ryegrass, Italian [7]; [31]) | Oat, Wild plant response rating (oat, wild [10]; [26]) | Plant response rating, Blackgrass (blackgrass [11]; [29]) | Plant response rating, Oat, Wild (oat, wild [15]; [28]) | Plant response rating, Foxtail, Green (green foxtail [17]; [29]) | Plant response rating, Corn (corn [18]; [29]) | Kochia plant response rating (kochia [19]; [26]) | Plant response rating, Blackgrass (blackgrass [21]; [30]) | Wheat plant response rating (wheat [22]; [26])
20: Plant response rating, Horseweed (horseweed; [28])
80: Plant response rating, Wheat (wheat [6]; [28]) | Plant response rating, Ryegrass, Italian (ryegrass, Italian [9]; [28]) | Plant response rating, Blackgrass (blackgrass [11]; [28]) | Plant response rating, Foxtail, Green (green foxtail [17]; [28]) | Blackgrass plant response rating (blackgrass [21]; [31])
30: Plant response rating, Kochia (kochia [13]; [28]) | Plant response rating, Ragweed (ragweed [23]; [28])
70: Barnyardgrass plant response rating (barnyardgrass [20]; [31])
10: Ragweed plant response rating (ragweed [14]; [31]) | Plant response rating, Rice (Flood) (rice)
0: Corn plant response rating (corn [4]; [31])
60: Plant response rating, Horseweed (horseweed; [29]) | Ragweed plant response rating (ragweed [14]; [26]) | Kochia plant response rating (kochia [19]; [31])
40: Corn plant response rating (corn [4]; [26]) | Oat, Wild plant response rating (oat, wild [10]; [31]) | Plant response rating, Pigweed, Palmer (pigweed, palmer [12]; [28]) | Plant response rating, Corn (corn [18]; [28]) | Wheat plant response rating (wheat [22]; [31])
15: Plant response rating, Barnyardgrass (Flood) (barnyardgrass [16])
